# Columns and labels:
# lymphomas = system: lymphomas; set-up: method as in PMID 31257072; conditions: lymphomas ref [6]; cited from earlier work
# [1] = system: circulating free ADMA, cfMMA, cfSDMA; test: Plasma circulating free ADMA, MMA and SDMA; type: in vivo, human; conditions: day 15
# Method: Tumor cell and plasma target engagement PD biomarkers were assessed in the dose-escalation cohort on days 1, 8, 15, and 22. In the PK/PD cohort, urine for PK and metabolite profiling was collected postdose on day 1 and through 48 h postdose on day 2, and for 24 h postdose on day 15. Participants underwent an on-treatment tumor biopsy on day 15. Asymmetric arginine 225 (R225) methylation of heterogeneous nuclear ribonucleoprotein A1 (hnRNP-A1) was identified as a target engagement PD of type I PRMT inhibition; treatment with GSK3368715 results in the reduction of asymmetric dimethylarginine 225 (ADMA-R225) on hnRNP-A1 protein in cancer cell lines and peripheral blood mononuclear cells (PBMCs). Noto et al. describe in detail the identification of hnRNP-A1 as a pharmacodynamic biomarker of type I PRMT inhibition, and the development of novel methodologies to accurately and precisely quantitate changes in the levels of ADMA on hnRNP-A1 in both blood and tumor compartments. Levels of ADMA-R225-hnRNP-A1 were measured in fresh frozen and formalin-fixed paired biopsies by liquid chromatography-mass spectrometry (LC-MS) and immunohistochemistry (IHC).
smiles,measurement,setting,value
CCOCC1(COCC)CCC(c2[nH]ncc2CN(C)CCNC)CC1 [GSK3368715],Cell lines with cytotoxic responses,lymphomas,56%
same,"Increase in cfMMA, mean (SE 11.9%)",[1]; 100 mg,24.8%
same,"Increase in cfSDMA, mean (SE 8.65%)",[1]; 100 mg,30.2%
same,"Reduction in circulating free ADMA, mean (SE 1.98%)",[1]; 100 mg,22.5%
same,"Increase in cfMMA, mean (SE 18.7%)",[1]; 200 mg,43.8%
same,"Increase in cfSDMA, mean (SE 23.8%)",[1]; 200 mg,39.8%
same,"Reduction in circulating free ADMA, mean (SE 7.7%)",[1]; 200-mg dose group,29.1%

# From publication PMC10338470, “Phase 1 study of GSK3368715, a type I PRMT inhibitor, in patients with advanced solid tumors” (British Journal of Cancer, 2023)
